Experiments:
[1] = system: Trypanosoma brucei brucei; assay: microbe, parasite or virus in culture; assay type: functional, organism-based; conditions: 427
in vitro = conditions: human
[2] = system: Trypanosoma brucei brucei; assay: Antitrypanosomal activity against Trypanosoma brucei brucei by pathogen box screening based assay; assay type: functional, organism-based

Structure (SMILES) | IC50 [1] [nM] | IC50 [2] [nM] | selectivity ratio (in vitro)
Cc1nn(C)c(C)c1NS(=O)(=O)c1c(Cl)cc(-c2ccnc(N3CCNCC3)c2)cc1Cl | 10 | – | –
COc1cccc(-n2nnnc2S(C)(=O)=O)c1 | 4120 | – | –
CC(Oc1ccccc1)C(=O)Nc1nc(-c2ccccn2)cs1 (configuration not stated) | 3220 | – | 11
CC(C)n1nc(-c2cc3c(Cl)cccc3[nH]2)c2c(N)ncnc21 | 6100 | – | 5.8
COC(=O)c1c(NC(=O)c2c(F)c(F)c(F)c(F)c2F)sc2c1CCCCC2 | – | – | 2.2
O=C(Nc1nc(-c2ccccn2)cs1)c1cncn1-c1ccccc1 | 2870 | – | –
Nc1nc2cc(-c3cncc(Oc4ccc(F)cc4)c3)ccc2[nH]1 | 1050 | – | –
Cc1cnc(N2CCN[C@@H](Cc3ccccc3)C2)nc1Oc1ccc(-n2ccnc2)cc1 | – | – | 4.9
O=C(Nc1ccc(C(F)(F)F)c(C(F)(F)F)c1)c1cc(Cl)ccc1O | 660 | – | –
COc1ccc(C2=NN(C3CCCCCC3)C(=O)[C@@H]3CC=CC[C@H]23)cc1OCCCCOc1ccc(-c2nnn[nH]2)cc1 | 500 | – | –
O=C(Nc1ccc2c(c1)B(O)OC2)c1ccccc1C(F)(F)F | 110 | – | –
CCC(=O)Nc1ccccc1C(=O)Nc1ccccn1 | 1000 | – | –
O=C(NCCc1ccn(-c2ccccc2)n1)C1CCCCC1 | 270 | – | –
COc1ccc2nccc(NC(=O)C3CCN(CCc4ccc(Cl)cc4)CC3)c2n1 | – | – | 0.8
CCOC(=O)c1c(NC(=O)c2c(F)c(F)c(F)c(F)c2F)sc(C(N)=O)c1C | 2990 | – | 2.2
CC(C)(C)c1cnc(NC(=O)c2ccccc2O)s1 | 5450 | – | –
CCCn1c(NC(=O)c2ccc3ccccc3n2)nc2ccccc21 | – | – | 3.5
CCc1ccccc1-n1c(C)cn2c3c(=O)n(C(C(=O)OC)C(C)C)c(=O)n(C)c3nc12 (configuration not stated) | 130 | – | –
N=C(N)Nc1ccc(-c2ccc(-c3ccc(N=C(N)N)c(Cl)c3)o2)cc1Cl | 520 | – | –
COc1cc(-c2cc(-c3ccc(S(C)(=O)=O)cc3)cnc2N)ccc1O | – | – | 76
c1ccc(-c2nc(NC3CCCCC3)cc(C3CC3)n2)nc1 | 3510 | – | 30
Cc1ccc2c(c1C)NC(=O)C21NN=C(c2ccccc2)S1 (configuration not stated) | 4680 | – | –
COc1ccc(OC)c(NCc2ccc3nc(N)nc(N)c3c2Cl)c1 | 2070 | – | 21
CO[C@@H](C(=O)N1Cc2[nH]nc(NC(=O)c3ccc(N4CCN(C)CC4)cc3)c2C1)c1ccccc1 [DANUSERTIB] | 1300 | – | –
Oc1c(I)cc(I)c2cccnc12 [IODOQUINOL] | – | – | 13

Now from value to compound, other results behind:

IC50 [1] [nM] | IC50 [2] [nM] | Structure (SMILES) | selectivity ratio (in vitro)
270 | – | COc1ccc(C(=N)N)cc1-c1cn(-c2ccc(C(=N)N)cc2)nn1 | –
3360 | – | CN(C)c1cc(NC(=O)Nc2ccccc2)c2ccccc2n1 | 5.3
4500 | – | CC1=Nc2ccc(Cl)cc2C(O)(c2ccc(C)cc2)N1CCN1CCCCC1 (configuration not stated) | –
2300 | – | COc1ccc(C2=NN(C3CCCCCC3)C(=O)C2(C)C)cc1OCCCCOc1ccc(-c2nn[nH]n2)cc1 | –
3500 | – | N=C(N)c1ccc(-c2cc(-c3ccccc3)on2)cc1 | –
5100 | – | c1ccc(Oc2ccc(-c3cc(N4CCNCC4)[nH]n3)cc2)cc1 | –
1800 | – | c1ccc(Oc2ccc(-c3cc(C4CCOCC4)[nH]n3)cc2)cc1 | –
20 | – | O=C(Nc1ccc(F)c(-c2nc3cc(-c4ccccc4)cnc3[nH]2)c1)N1CCCC1 | –
500 | – | CS(=O)(=O)c1ccccc1C(=O)N(Cc1ccccc1)c1ccccc1 | –
1500 | – | CNC(=O)C1Cc2ccccc2N1C(=O)Cc1ccc(F)cc1 (configuration not stated) | –
1800 | 500 | Cc1nn2c(=O)c3c([nH]c2c1-c1ccc(Cl)cc1)CCCC3 | –
1200 | – | Cc1noc(C)c1COc1cccc(C(=O)N=c2[nH]cccc2C)c1 | –
4300 | – | CCN(CC)S(=O)(=O)c1ccc(C(=O)Nc2cc(C)nn2-c2nc(C)c(C)c(=O)[nH]2)cc1 | –
230 | – | O=C(NCc1nnc2n1CCCCC2)c1ccc(-c2ccc(F)cc2)o1 | –
130 | – | CC1CCCCN1C(=O)NCCc1coc(-c2ccc(F)cc2)n1 (configuration not stated) | –
1100 | – | COc1ccc(S(=O)(=O)Nc2ccc(CN3CCN(C(=O)c4cccc(C#N)c4)CC3)cc2)cc1 | –

IC50 [1] [nM] | IC50 [2] [nM] | Structure (SMILES) | selectivity ratio (in vitro)
240 | – | Cc1ccc(S(=O)(=O)Nc2ccc(CN3CCN(C(=O)c4cccc(C#N)c4)CC3)cc2)cc1 | –
5300 | – | CN1CCN(S(=O)(=O)c2ccc(-c3ccc4c(Nc5ncc(Cl)cn5)ccnc4c3)cc2)CC1 | –
240 | – | NCCN(C(=O)c1ccc(Cl)cc1Cl)c1ccc(OCc2ccc(Cl)cc2)cc1 | –
1500 | – | Cc1[nH]c2ccccc2c1C(c1cccs1)N1CCN(C)CC1 (configuration not stated) | –
3490 | – | CS(=O)(=O)c1ccc(C(=O)N(CC2CCCO2)c2nc3ccccc3s2)cc1[N+](=O)[O-] (configuration not stated) | 2.3
1200 | – | CCCCN(CCCC)c1c(C#N)cc(S(=O)(=O)Nc2ccccc2)cc1C#N | –
5700 | – | N=C(N)Nc1ccc(-c2ccc(-c3ccc(NC(=N)N)cc3Cl)o2)c(Cl)c1 | –
2720 | – | O=C(Nc1ccccc1)c1ccc(-c2cc3ccncc3cc2OC2CCNCC2)s1 | –
6020 | – | O=C(NCCc1ccccc1)c1cc(-c2cccnc2)cnc1NCC1CC1 | –
2390 | – | OCCc1ccc(Nc2nccc(-c3nnc4ccccn34)n2)cc1 | 17
1450 | – | O=C(Nc1ccc(N2CCNCC2)cc1)c1ccn2ncc(-c3cccc(Cl)c3)c2n1 | –
3290 | – | Nc1nccc2ccc(-c3ccc4nccn4c3)cc12 | –
2380 | – | CN1CCC(NCc2cccc(-c3ccc(S(=O)(=O)NCc4ccccc4)cc3)c2)CC1 | 59
5150 | – | Cc1ccc2[nH]c(C3CCCNC3)c(-c3ccncc3)c2c1 (configuration not stated) | –
140 | – | Cc1ncc(-c2ccnc(Nc3ccc(S(C)(=O)=O)cc3)n2)n1C(C)C [AZD-5438] | –
170 | – | CNC(=O)c1nn(C)c2c1C(C)(C)Cc1cnc(Nc3ccc(N4CCN(C)CC4)cc3)nc1-2 [MILCICLIB] | –

From ChEMBL document CHEMBL4368861 (Medchemcomm, 2018)
